Experimental data as given in ChEMBL document CHEMBL2074343 (Pharm Res, 2004).

How the values were obtained:
Assay type in all cases: functional, cell-based
[1] = molecular target: T1, ATP-dependent translocase ABCB1 (Homo sapiens, UniProt P08183); test: TP_TRANSPORTER: transepithelial transport in L-MDR1 cells; conditions: pig
[2] = molecular target: T1, ATP-dependent translocase ABCB1; test: TP_TRANSPORTER: transepithelial transport of vinblastine in the presence of Atrovastatin at 50uM in KBV1 cells; conditions: kbv1, 50 µM
[3] = molecular target: T1, ATP-dependent translocase ABCB1; test: TP_TRANSPORTER: transepithelial transport of vinblastine in the presence of Simvastatin acid at 50uM in L-MDR1 cells; conditions: pig, l-mdr1, 50 µM

T1 sequence (P08183 whole entry): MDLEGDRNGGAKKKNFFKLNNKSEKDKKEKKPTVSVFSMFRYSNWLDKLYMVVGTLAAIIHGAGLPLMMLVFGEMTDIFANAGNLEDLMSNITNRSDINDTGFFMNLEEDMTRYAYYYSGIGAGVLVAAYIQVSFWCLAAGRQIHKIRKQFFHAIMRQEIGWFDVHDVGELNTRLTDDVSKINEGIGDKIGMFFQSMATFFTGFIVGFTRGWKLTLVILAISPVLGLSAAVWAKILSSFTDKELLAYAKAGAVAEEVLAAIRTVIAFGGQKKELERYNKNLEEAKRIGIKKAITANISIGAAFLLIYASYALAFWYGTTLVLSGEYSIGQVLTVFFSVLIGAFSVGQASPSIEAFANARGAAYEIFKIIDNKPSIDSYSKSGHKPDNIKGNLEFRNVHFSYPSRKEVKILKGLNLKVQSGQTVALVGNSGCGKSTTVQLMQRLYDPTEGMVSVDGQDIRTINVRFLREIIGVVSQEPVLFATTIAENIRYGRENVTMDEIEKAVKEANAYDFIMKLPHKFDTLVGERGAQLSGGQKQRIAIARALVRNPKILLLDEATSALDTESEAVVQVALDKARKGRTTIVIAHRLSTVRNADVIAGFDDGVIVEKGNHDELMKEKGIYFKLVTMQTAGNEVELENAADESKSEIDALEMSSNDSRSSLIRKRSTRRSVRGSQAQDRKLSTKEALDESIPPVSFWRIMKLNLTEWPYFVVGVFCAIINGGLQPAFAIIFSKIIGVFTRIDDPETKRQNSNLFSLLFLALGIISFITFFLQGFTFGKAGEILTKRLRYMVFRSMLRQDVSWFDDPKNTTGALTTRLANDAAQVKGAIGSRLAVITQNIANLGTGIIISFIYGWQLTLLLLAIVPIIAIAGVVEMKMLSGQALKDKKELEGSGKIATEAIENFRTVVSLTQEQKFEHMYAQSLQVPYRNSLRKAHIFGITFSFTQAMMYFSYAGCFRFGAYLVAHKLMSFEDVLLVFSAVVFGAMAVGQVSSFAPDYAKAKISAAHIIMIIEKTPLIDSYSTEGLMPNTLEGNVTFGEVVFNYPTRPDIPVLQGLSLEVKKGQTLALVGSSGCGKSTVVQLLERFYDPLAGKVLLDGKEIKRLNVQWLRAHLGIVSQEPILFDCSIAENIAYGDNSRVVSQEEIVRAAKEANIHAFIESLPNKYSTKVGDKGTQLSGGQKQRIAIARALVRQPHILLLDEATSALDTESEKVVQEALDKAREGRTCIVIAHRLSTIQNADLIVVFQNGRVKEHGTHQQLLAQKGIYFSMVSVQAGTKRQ

Activity [1]	Activity [2]	Activity [3]	SMILES
substrate [+]	is not an inhibitor [-]	–	CC(C)c1c(C(=O)Nc2ccccc2)c(-c2ccccc2)c(-c2ccc(F)cc2)n1CC[C@@H](O)C[C@@H](O)CC(=O)O [ATORVASTATIN]
substrate [+]	–	is not an inhibitor [-]	CCC(C)(C)C(=O)O[C@H]1C[C@@H](C)C=C2C=C[C@H](C)[C@H](CC[C@@H](O)C[C@@H](O)CC(=O)O)[C@H]21 [TENIVASTATIN]
